One compound from PMC5384001 (Scientific Reports, 2017) can be followed below.

Substitutions are numbered along the chain they refer to.

The target in test [1] is T1, GluD2-Lc(Y543Q)-(HS2)GluN1 (Rattus norvegicus, UniProt Q63226, A654T/A766F/D767R/N763E/R768S/T764L/V761T/V765F/Y543Q).
T1 construct: the function of full-length receptors as well, we introduced them into the GluD2 lurcher mutant (GluD2-Lc); expressed in transfected cells; host or cells: Xenopus laevis oocytes injected with cRNA
T1 sequence (Q63226 24-1007 Y543Q/A654T/V761T/N763E/T764L/V765F/A766F/D767R/R768S): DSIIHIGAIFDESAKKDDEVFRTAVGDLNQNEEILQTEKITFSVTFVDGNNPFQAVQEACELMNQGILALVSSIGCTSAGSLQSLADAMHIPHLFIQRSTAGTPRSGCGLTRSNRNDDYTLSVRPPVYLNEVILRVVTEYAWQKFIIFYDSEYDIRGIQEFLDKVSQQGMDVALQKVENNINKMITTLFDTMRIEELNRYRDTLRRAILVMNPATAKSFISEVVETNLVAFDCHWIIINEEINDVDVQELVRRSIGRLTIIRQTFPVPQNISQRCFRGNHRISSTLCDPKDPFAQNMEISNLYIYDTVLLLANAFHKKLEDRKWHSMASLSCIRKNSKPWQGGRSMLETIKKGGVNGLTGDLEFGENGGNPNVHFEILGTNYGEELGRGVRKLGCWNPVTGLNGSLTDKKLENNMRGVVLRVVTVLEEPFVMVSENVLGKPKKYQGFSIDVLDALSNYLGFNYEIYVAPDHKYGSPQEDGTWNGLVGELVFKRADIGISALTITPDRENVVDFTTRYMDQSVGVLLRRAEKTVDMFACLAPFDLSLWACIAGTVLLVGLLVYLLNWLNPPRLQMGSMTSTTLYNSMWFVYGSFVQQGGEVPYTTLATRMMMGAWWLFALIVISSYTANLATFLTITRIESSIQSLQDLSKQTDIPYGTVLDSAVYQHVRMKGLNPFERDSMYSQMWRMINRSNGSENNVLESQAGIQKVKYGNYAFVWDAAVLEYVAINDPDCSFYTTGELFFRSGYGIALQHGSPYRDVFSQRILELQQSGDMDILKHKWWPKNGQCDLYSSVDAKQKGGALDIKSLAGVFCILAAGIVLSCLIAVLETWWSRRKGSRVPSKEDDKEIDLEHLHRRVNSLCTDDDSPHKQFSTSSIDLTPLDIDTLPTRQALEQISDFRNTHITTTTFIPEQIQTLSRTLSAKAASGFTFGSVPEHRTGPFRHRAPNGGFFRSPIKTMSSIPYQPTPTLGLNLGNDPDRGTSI
The test is described as follows: Two-electrode voltage clamp in Xenopus oocytes, inhibition of spontaneous currents. Type of test: cell-based. To be noted: fraction of spontaneous current inhibited by saturating D-serine. A general note: Two-electrode voltage clamp holds a large cell at a set potential and records current.

Another test concerns the target T2, GluD2-Lc(Y770F) (Rattus norvegicus, UniProt Q63226, A654T/Y770F).
T2 construct: the function of full-length receptors as well, we introduced them into the GluD2 lurcher mutant (GluD2-Lc); expressed in transfected cells; host or cells: Xenopus laevis oocytes injected with cRNA
T2 sequence (Q63226 24-1007 A654T/Y770F): T1 sequence (Q63226 24-1007 Y543Q/A654T/V761T/N763E/T764L/V765F/A766F/D767R/R768S) with Q520Y, T738V, E740N, L741T, F742V, F743A, R744D, S745R, Y747F
The description is as above. To be noted: fraction of spontaneous current inhibited by saturating D-serine. Type of test: cell-based.

In the case of `N[C@H](CO)C(=O)O` [D-serine], the “D-serine efficacy Mean ± SEM” value in test [1] was determined as 24.1 ± 0.4%; at GluD2-Lc(Y770F) it was 59.9 ± 1.7%.
